ChEMBL document CHEMBL5126592, “Design, synthesis and activity against drug-resistant bacteria evaluation of C-20, C-23 modified 5-O-mycaminosyltylonolide derivatives” (Eur J Med Chem, 2022)
Values after ≈ are worked out from the molar mass of the structure shown. Active and inactive are the calls of the source. The calls are words filed in the database; no cut-off is given here.

Assays:
Staphylococcus aureus [1] = test: Antibacterial activity against Staphylococcus aureus ATCC 25923 infected in kunming mouse assessed as reduction in viable pathogens at 20 mg/kg, iv measured after 1 hr; assay type: functional, organism-based
Escherichia coli [2] = test: Antibacterial activity against Escherichia coli ATCC 25922 at pH 7.6 incubated for 16 to 20 hrs by broth microdilution method; assay type: functional; settings: time 16-20 hrs
[3] = tested on: Streptococcus dysgalactiae; test: Antibacterial activity against Streptococcus dysgalactiae incubated for 16 to 20 hrs by broth microdilution method; assay type: functional; settings: time 16-20 hrs
[4] = Genotoxicity in Salmonella typhimurium TA1537 assessed as number of revertants at 4x10^-5 mg/plate incubated for 72 hrs in presence of liver S9 fraction by Ames test (reference value: 20 +/- 5); assay type: toxicity, subcellular; settings: salmonella enterica subsp. enterica serovar typhimurium, s9, 72 h
[5] = Genotoxicity in Salmonella typhimurium TA102 assessed as number of revertants at 1x10^-3 mg/plate incubated for 72 hrs in presence of liver S9 fraction by Ames test (reference value: 465.33 +/- 18.04); assay type: toxicity, subcellular; settings: salmonella enterica subsp. enterica serovar typhimurium, s9, 72 h
Escherichia coli [6] = test: Antibacterial activity against Escherichia coli ATCC 25922 at pH 8.6 incubated for 16 to 20 hrs by broth microdilution method; assay type: functional; settings: time 16-20 hrs
Escherichia coli [7] = test: Antibacterial activity against Escherichia coli ATCC 25922 at pH 7.4 incubated for 16 to 20 hrs by broth microdilution method; assay type: functional; settings: time 16-20 hrs
[8] = Genotoxicity in Salmonella typhimurium TA1535 assessed as number of revertants at 2x10^-4 mg/plate incubated for 72 hrs in absence of liver S9 fraction by Ames test (reference value: 14.33 +/- 0.58); assay type: toxicity; settings: salmonella enterica subsp. enterica serovar typhimurium, s9, 72 h
[9] = Genotoxicity in Salmonella typhimurium TA102 assessed as number of revertants at 2x10^-4 mg/plate incubated for 72 hrs in presence of liver S9 fraction by Ames test (reference value: 465.33 +/- 18.04); assay type: toxicity, subcellular; settings: salmonella enterica subsp. enterica serovar typhimurium, s9, 72 h
[10] = Genotoxicity in Salmonella typhimurium TA100 assessed as number of revertants at 2x10^-4 mg/plate incubated for 72 hrs in presence of liver S9 fraction by Ames test (reference value: 204.33 +/- 8.14); assay type: toxicity, subcellular; settings: salmonella enterica subsp. enterica serovar typhimurium, s9, 72 h
Staphylococcus aureus [11] = test: Bactericidal activity against Staphylococcus aureus ATCC 29213 incubated for 20 to 24 hrs by CLSI based analysis; assay type: functional; settings: time 20-24 hrs
Staphylococcus aureus [12] = test: Antibacterial activity against Staphylococcus aureus ATCC 29213 at pH 6.8 incubated for 16 to 20 hrs by broth microdilution method; assay type: functional; settings: time 16-20 hrs
[13] = Genotoxicity in Salmonella typhimurium TA1535 assessed as number of revertants at 8x10^-6 mg/plate incubated for 72 hrs in presence of liver S9 fraction by Ames test (reference value: 15.33 +/- 2.52); assay type: toxicity, subcellular; settings: salmonella enterica subsp. enterica serovar typhimurium, s9, 72 h
[14] = Toxicity in Kunming mouse infected with Staphylococcus aureus ATCC 25923 assessed as intact lung tissue structure at 20 to 40 mg/kg, iv measured after 1 hr by hematoxylin and eosin staining based microscopic analysis; assay type: organism-based; settings: in vivo, dose 20-40 mg/kg
[15] = Genotoxicity in Salmonella typhimurium TA1535 assessed as number of revertants at 8x10^-6 mg/plate incubated for 72 hrs in absence of liver S9 fraction by Ames test (reference value: 14.33 +/- 0.58); assay type: toxicity; settings: salmonella enterica subsp. enterica serovar typhimurium, s9, 72 h
[16] = Genotoxicity in Salmonella typhimurium TA1537 assessed as number of revertants at 2x10^-4 mg/plate incubated for 72 hrs in presence of liver S9 fraction by Ames test (reference value: 20 +/- 5); assay type: toxicity, subcellular; settings: salmonella enterica subsp. enterica serovar typhimurium, s9, 72 h
Staphylococcus aureus [17] = test: Antibacterial activity against Staphylococcus aureus ATCC 29213 at pH 7 incubated for 16 to 20 hrs by broth microdilution method; assay type: functional; settings: time 16-20 hrs
[18] = Genotoxicity in Salmonella typhimurium TA1535 assessed as number of revertants at 1.6x10^-6 mg/plate incubated for 72 hrs in presence of liver S9 fraction by Ames test (reference value: 15.33 +/- 2.52); assay type: toxicity, subcellular; settings: salmonella enterica subsp. enterica serovar typhimurium, s9, 72 h
Staphylococcus aureus [19] = test: Antibacterial activity against Staphylococcus aureus ATCC 29213 at pH 8.6 incubated for 16 to 20 hrs in absence of foetal bovine serum by broth microdilution method; assay type: functional; settings: time 16-20 hrs
Staphylococcus aureus [20] = test: Antibacterial activity against Staphylococcus aureus ATCC 29213 at pH 8.6 incubated for 16 to 20 hrs by broth microdilution method; assay type: functional; settings: time 16-20 hrs
[21] = Genotoxicity in Salmonella typhimurium TA98 assessed as number of revertants at 8x10^-6 mg/plate incubated for 72 hrs in absence of liver S9 fraction by Ames test (reference value: 57.33 +/- 3.06); assay type: toxicity; settings: salmonella enterica subsp. enterica serovar typhimurium, s9, 72 h
[22] = Genotoxicity in Salmonella typhimurium TA1537 assessed as number of revertants at 8x10^-6 mg/plate incubated for 72 hrs in absence of liver S9 fraction by Ames test (reference value: 22.67 +/- 2.52); assay type: toxicity; settings: salmonella enterica subsp. enterica serovar typhimurium, s9, 72 h
Escherichia coli [23] = test: Inhibition of protein synthesis in Escherichia coli ATCC 25922 assessed as reduction in protein content at […] measured upto 12 hrs by microporous enzyme labeling method relative to control; assay type: functional
[24] = Genotoxicity in Salmonella typhimurium TA98 assessed as number of revertants at 2x10^-4 mg/plate incubated for 72 hrs in absence of liver S9 fraction by Ames test (reference value: 57.33 +/- 3.06); assay type: toxicity; settings: salmonella enterica subsp. enterica serovar typhimurium, s9, 72 h
[25] = Genotoxicity in Salmonella typhimurium TA100 assessed as number of revertants at 4x10^-5 mg/plate incubated for 72 hrs in presence of liver S9 fraction by Ames test (reference value: 204.33 +/- 8.14); assay type: toxicity, subcellular; settings: salmonella enterica subsp. enterica serovar typhimurium, s9, 72 h
Staphylococcus aureus [26] = test: Antibacterial activity against Staphylococcus aureus ATCC 29213 at pH 7.6 incubated for 16 to 20 hrs by broth microdilution method; assay type: functional; settings: time 16-20 hrs
Staphylococcus aureus [27] = test: Antibacterial activity against Staphylococcus aureus ATCC 25923 infected in kunming mouse assessed as reduction in bacterial load at 20 to 40 mg/kg, iv measured after 1 hr; assay type: functional, organism-based; settings: dose 20-40 mg/kg
Escherichia coli [28] = test: Antibacterial activity against Escherichia coli ATCC 25922 incubated for 16 to 20 hrs in presence of 10% foetal bovine serum by broth microdilution method; assay type: functional; settings: time 16-20 hrs
[29] = Genotoxicity in Salmonella typhimurium TA102 assessed as number of revertants at 1.6x10^-6 mg/plate incubated for 72 hrs in presence of liver S9 fraction by Ames test (reference value: 465.33 +/- 18.04); assay type: toxicity, subcellular; settings: salmonella enterica subsp. enterica serovar typhimurium, s9, 72 h
Escherichia coli [30] = test: Antibacterial activity against Escherichia coli ATCC 25922 incubated for 16 to 20 hrs by broth microdilution method; assay type: functional; settings: time 16-20 hrs
[31] = Genotoxicity in Salmonella typhimurium TA1537 assessed as number of revertants at 1x10^-3 mg/plate incubated for 72 hrs in absence of liver S9 fraction by Ames test (reference value: 22.67 +/- 2.52); assay type: toxicity; settings: salmonella enterica subsp. enterica serovar typhimurium, s9, 72 h
[32] = Genotoxicity in Salmonella typhimurium TA1537 assessed as number of revertants at 2x10^-4 mg/plate incubated for 72 hrs in absence of liver S9 fraction by Ames test (reference value: 22.67 +/- 2.52); assay type: toxicity; settings: salmonella enterica subsp. enterica serovar typhimurium, s9, 72 h
Escherichia coli [33] = test: Antibacterial activity against Escherichia coli ATCC 25922 incubated for 16 to 20 hrs using 10^5 CFU/ml bacterial inoculum by broth microdilution method; assay type: functional; settings: time 16-20 hrs
[34] = Genotoxicity in Salmonella typhimurium TA98 assessed as number of revertants at 4x10^-5 mg/plate incubated for 72 hrs in presence of liver S9 fraction by Ames test (reference value: 43.67+/- 7.1); assay type: toxicity, subcellular; settings: salmonella enterica subsp. enterica serovar typhimurium, s9, 72 h

SMILES: CC[C@H]1OC(=O)C[C@@H](O)[C@H](C)[C@@H](O[C@@H]2O[C@H](C)[C@@H](O)[C@H](N(C)C)[C@H]2O)[C@@H](CCN(C)Cc2cn(-c3cnc4ccccc4c3)nn2)C[C@@H](C)C(=O)/C=C/C(C)=C/[C@@H]1CN1CCCCCC1
- Activity (Staphylococcus aureus [1]): Active
- MIC (Escherichia coli [2]): 0.5 µg/mL (≈ 0.554 µM)
- MIC [3]: 0.25 µg/mL (≈ 0.277 µM)
- Activity [4]: 14.67
- Activity [5]: 449.33
- MIC (Escherichia coli [6]): 0.25 µg/mL (≈ 0.277 µM)
- MIC (Escherichia coli [7]): 1 µg/mL (≈ 1.11 µM)
- Activity [8]: 10.33
- Activity [9]: 456.67
- Activity [10]: 220.67
- MBC (Staphylococcus aureus [11]): 0.25 µg/mL (≈ 0.277 µM)
- MIC (Staphylococcus aureus [12]): 4 µg/mL (≈ 4.43 µM)
- Activity [13]: 13.67
- Activity [14]: Non-Toxic
- Activity [15]: 13
- Activity [16]: 15
- MIC (Staphylococcus aureus [17]): 2 µg/mL (≈ 2.22 µM)
- Activity [18]: 16.33
- MIC (Staphylococcus aureus [19]): 0.25 µg/mL (≈ 0.277 µM)
- MIC (Staphylococcus aureus [20]): ≤ 0.0625 µg/mL
- Activity [21]: 63.33
- Activity [22]: 21.33
- inhibition (Escherichia coli [23]): 32.1%
- Activity [24]: 61.33
- Activity [25]: 162
- MIC (Staphylococcus aureus [26]): 0.25 µg/mL (≈ 0.277 µM)
- Activity (Staphylococcus aureus [27]): Active
- MIC (Escherichia coli [28]): 2 µg/mL
- Activity [29]: 449.33
- MIC (Escherichia coli [30]): 1 µg/mL (≈ 1.11 µM)
- Activity [31]: 15.33
- Activity [32]: 15.67
- MIC (Escherichia coli [33]): 0.5 µg/mL (≈ 0.554 µM)
- Activity [34]: 44.67
